Experimental data as given in ChEMBL document CHEMBL6092203, “Discovery of Novel PROTAC-Based HPK1 Degraders with High Potency and Selectivity for Cancer Immunotherapy” (J Med Chem, 2024).
Active and inactive are the calls of the source. The rule behind the calls is not given here.

Legend:
[1] = target: T1, Protein cereblon/Mitogen-activated protein kinase kinase kinase kinase 1 (Homo sapiens, UniProt Q92918+Q96SW2); test: PROTAC activity at CRBN/HPK1 in human Jurkat cells assessed as HPK1 degradation at 1 uM pretreated with MLN4924 for 4 hrs followed by compound addition and measured after 24 hrs by Western blotting analysis; assay type: cell-based
T1 sequence (Q92918 whole entry, looked up): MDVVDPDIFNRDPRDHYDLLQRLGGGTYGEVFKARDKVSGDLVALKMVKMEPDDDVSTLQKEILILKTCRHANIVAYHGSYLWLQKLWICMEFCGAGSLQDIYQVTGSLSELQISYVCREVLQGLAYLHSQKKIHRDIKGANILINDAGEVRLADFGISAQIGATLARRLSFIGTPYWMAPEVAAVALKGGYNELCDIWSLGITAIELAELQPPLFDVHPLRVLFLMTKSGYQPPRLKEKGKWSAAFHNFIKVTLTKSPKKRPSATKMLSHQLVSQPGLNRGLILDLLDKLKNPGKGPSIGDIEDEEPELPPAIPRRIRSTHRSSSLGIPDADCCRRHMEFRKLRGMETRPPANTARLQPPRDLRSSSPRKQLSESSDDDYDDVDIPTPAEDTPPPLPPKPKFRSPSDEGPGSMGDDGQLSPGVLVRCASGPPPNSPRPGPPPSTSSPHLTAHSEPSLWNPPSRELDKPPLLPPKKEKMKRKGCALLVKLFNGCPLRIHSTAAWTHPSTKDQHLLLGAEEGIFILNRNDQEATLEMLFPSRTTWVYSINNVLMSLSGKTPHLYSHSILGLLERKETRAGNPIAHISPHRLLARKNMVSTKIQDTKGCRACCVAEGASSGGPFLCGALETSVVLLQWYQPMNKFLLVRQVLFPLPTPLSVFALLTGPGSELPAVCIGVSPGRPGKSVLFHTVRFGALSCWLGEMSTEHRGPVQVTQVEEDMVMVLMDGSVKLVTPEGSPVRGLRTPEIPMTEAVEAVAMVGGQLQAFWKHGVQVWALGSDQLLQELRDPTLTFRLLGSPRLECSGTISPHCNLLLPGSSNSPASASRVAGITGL
T1 sequence (Q96SW2 whole entry, looked up): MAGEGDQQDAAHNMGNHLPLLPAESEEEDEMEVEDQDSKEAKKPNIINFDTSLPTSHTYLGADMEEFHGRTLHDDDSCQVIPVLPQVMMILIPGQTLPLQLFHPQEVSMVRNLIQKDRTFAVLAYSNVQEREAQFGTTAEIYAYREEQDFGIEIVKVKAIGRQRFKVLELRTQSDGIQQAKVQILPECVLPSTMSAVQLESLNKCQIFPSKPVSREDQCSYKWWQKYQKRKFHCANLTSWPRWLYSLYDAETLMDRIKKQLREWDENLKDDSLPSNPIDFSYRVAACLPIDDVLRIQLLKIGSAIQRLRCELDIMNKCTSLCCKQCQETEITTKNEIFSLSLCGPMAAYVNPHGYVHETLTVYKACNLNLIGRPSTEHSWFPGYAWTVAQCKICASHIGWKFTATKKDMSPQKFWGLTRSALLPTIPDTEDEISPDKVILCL

[2] = Metabolic stability in mouse hepatocytes assessed as intrinsic clearance at 1 uM incubated for 90 mins by LC-MS/MS method; assay type: ADME, cell-based, Hepatocyte; conditions: 1.5 h
[3] = Drug distribution in rat gastrointestinal tract measured after 0.5 to 6 hrs; assay type: ADME, tissue-based; conditions: in vivo, time 0.5-6 hrs
Cytochrome P450 3A4 = Cytochrome P450 3A4 (Homo sapiens, UniProt P08684); test: Inhibition of CYP3A4 in human liver microsomes using testosterone as substrate in presence of NADPH; assay type: ADME, Microsome
Cytochrome P450 3A4, sequence (P08684 whole entry): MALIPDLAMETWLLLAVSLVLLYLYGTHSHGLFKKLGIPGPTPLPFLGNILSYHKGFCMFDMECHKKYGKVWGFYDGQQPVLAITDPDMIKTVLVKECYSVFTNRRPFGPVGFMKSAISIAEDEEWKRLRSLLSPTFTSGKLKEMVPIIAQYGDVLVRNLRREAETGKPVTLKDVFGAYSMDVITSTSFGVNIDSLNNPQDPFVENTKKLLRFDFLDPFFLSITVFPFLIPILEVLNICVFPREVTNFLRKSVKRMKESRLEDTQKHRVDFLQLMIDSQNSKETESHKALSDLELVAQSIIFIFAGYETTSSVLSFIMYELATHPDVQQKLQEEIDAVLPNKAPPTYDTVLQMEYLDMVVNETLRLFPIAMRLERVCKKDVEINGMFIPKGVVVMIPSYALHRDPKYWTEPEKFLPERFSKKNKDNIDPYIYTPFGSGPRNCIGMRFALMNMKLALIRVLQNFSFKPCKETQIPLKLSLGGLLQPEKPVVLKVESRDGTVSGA

in vivo [4] = conditions: male, Sprague-Dawley, rat, po, 30 mg/kg
in vivo [5] = conditions: beagle, dog, po, 5 mg/kg
Description: Cmax in Beagle dog at 5 mg/kg, po measured upto 24 hrs by LC-MS analysis

[6] = target: T1, Protein cereblon/Mitogen-activated protein kinase kinase kinase kinase 1; test: PROTAC activity at CRBN/HPK1 in human Jurkat cells assessed as HPK1 degradation measured after 24 hrs by Western blotting analysis; assay type: cell-based; conditions: dose 1-2000 nM
MC-38 [7] = test: Antitumor activity against mouse MC38 cells implanted in C57BL/6J mouse assessed as tumor weight inhibition rate at 0.1 mg/kg, po BID measured after 4 weeks; assay type: functional; parameters: scale not given: the % may be the effect or the level left
[8] = AUC(0 to 24 hrs) in female Sprague-Dawley rat at 30 mg/kg/day, po measured at day 1; assay type: ADME, organism-based; conditions: in vivo, time 1 day
[9] = Plasma protein binding in dog at 10 uM incubated for 6 hrs by equilibrium dialysis based LC-MS/MS method; assay type: ADME, cell-free, Canis lupus familiaris; conditions: read-out: PPB (converted)
in vitro = conditions: dog, hepatocytes
in vivo [10] = conditions: female, Sprague-Dawley, rat, po, 30 mg/kg
[11] = Drug metabolism in rat hepatocytes assessed as phase 2 metabolites formation at 10 uM incubated for 120 mins by UHPLC-UV/MS/MS method; assay type: ADME, cell-based, Hepatocyte; conditions: 2 h
MC-38 [12] = test: Antitumor activity against mouse MC38 cells implanted in C57BL/6J mouse assessed as tumor growth inhibition at 0.5 mg/kg, IG BID administered for 3 to 4 weeks; assay type: functional, organism-based; conditions: time 3-4 weeks
[13] = Toxicity in C57BL/6J mouse assessed as change in body weight at 0.1 to 1 mg/kg, po bid measured after 28 days in presence of 5 mg/kg anti-PD1; assay type: organism-based; conditions: in vivo, 672 h, dose 0.1-1 mg/kg, time 28 day
MC-38 [14] = test: Antitumor activity against mouse MC38 cells implanted in po dosed C57BL/6J mouse assessed as tumor growth inhibition administered for 3 to 4 weeks; assay type: functional, organism-based; conditions: time 3-4 weeks
[15] = Toxicity in Sprague-Dawley rat assessed as no observable adverse effect level measured after 14 days; conditions: in vivo, time 14 day
in vivo [16] = conditions: female, Sprague-Dawley, rat, po, 100 mg/kg
MC-38 [17] = test: Synergistic antitumor activity against mouse MC38 cells implanted in C57BL/6J mouse assessed as tumor growth inhibition at 0.5 mg/kg, po bid measured after 4 weeks in presence of 5 mg/kg anti-PD1 and measured twice a week; assay type: functional; conditions: MC-38, 672 h, read-out: TGI
[18] = Toxicity in C57BL/6J mouse assessed as change in body weight at 100 mg/kg, po qd measured after 28 days; assay type: organism-based; conditions: in vivo, 672 h, time 28 day
in vivo [19] = conditions: male, Sprague-Dawley, rat, po, 100 mg/kg
[20] = Tmax in Beagle dog at 5 mg/kg, po measured upto 24 hrs by LC-MS analysis; assay type: ADME, organism-based, Canis lupus familiaris; conditions: in vivo
[21] = Volume of distribution at steady state in Sprague-Dawley rat at 2 mg/kg, iv measured upto 24 hrs by LC-MS analysis; assay type: ADME, organism-based; conditions: in vivo, read-out: Vdss
[22] = Toxicity in C57BL/6J mouse assessed as body weight loss at 0.02 to 0.5 mg/kg, po qd administered for 3 to 4 weeks; assay type: organism-based; conditions: in vivo, dose lower 0.02 mg/kg, time lower 3 weeks, dose upper 0.5 mg/kg, time upper 4 weeks
MC-38 [23] = test: Antitumor activity against mouse MC38 cells implanted in C57BL/6J mouse assessed as reduction in tumor weight at 100 mg/kg, po QD administered for 3 to 4 weeks (reference value: 1.79 +/- 0.24 g); assay type: functional; conditions: time 3-4 weeks
[24] = Tmax in Sprague-Dawley rat at 1 mg/kg, po measured upto 24 hrs by LC-MS analysis; assay type: ADME, organism-based; conditions: in vivo
[25] = Drug metabolism in dog hepatocytes assessed as phase 2 metabolites formation at 10 uM incubated for 120 mins by UHPLC-UV/MS/MS method; assay type: ADME, cell-based, Canis lupus familiaris, Hepatocyte; conditions: 2 h
[26] = target: T1, Protein cereblon/Mitogen-activated protein kinase kinase kinase kinase 1; test: PROTAC activity at CRBN/HPK1 in human Jurkat cells assessed as HPK1 degradation at 0.01 uM pretreated with MG132 for 4 hrs followed by compound addition and measured after 24 hrs by Western blotting analysis; assay type: cell-based
MC-38 [27] = test: Antitumor activity against mouse MC38 cells implanted in C57BL/6J mouse assessed as reduction in tumor volume at 100 mg/kg, po QD administered for 3 to 4 weeks (reference value: 1549.22 +/- 217.92 mm3); assay type: functional; conditions: time 3-4 weeks
MC-38 [28] = test: Antitumor activity against mouse MC38 cells implanted in C57BL/6J mouse assessed as reduction in tumor weight at 1 mg/kg, po BID administered for 3 to 4 weeks (reference value: 1.79 +/- 0.24 g); assay type: functional; conditions: time 3-4 weeks
Cytochrome P450 2D6 = Cytochrome P450 2D6 (Homo sapiens, UniProt P10635); test: Inhibition of CYP2D6 in human liver microsomes using dextromethorphan as substrate in presence of NADPH; assay type: ADME, Microsome
Cytochrome P450 2D6, sequence (P10635 whole entry): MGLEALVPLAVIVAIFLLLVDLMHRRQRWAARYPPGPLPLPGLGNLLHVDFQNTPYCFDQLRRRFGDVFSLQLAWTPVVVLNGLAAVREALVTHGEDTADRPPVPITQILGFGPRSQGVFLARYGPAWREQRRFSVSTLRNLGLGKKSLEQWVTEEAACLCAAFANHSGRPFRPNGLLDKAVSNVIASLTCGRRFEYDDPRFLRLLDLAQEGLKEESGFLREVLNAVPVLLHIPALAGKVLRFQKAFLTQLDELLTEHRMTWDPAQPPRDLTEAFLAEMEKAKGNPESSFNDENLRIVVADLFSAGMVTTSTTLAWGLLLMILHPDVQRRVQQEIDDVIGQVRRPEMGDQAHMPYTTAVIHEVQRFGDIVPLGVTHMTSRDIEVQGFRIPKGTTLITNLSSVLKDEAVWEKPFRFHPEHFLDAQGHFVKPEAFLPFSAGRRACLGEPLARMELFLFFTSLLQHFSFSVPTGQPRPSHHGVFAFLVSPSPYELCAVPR

MC-38 [29] = test: Synergistic antitumor activity against mouse MC38 cells implanted in C57BL/6J mouse assessed as reduction in tumor weight at 0.1 mg/kg, po bid administered for 3 to 4 weeks in presence of 5 mg/kg anti-PD1 and measured twice a week (reference value: 1.79 +/- 0.24 g); assay type: functional; conditions: time 3-4 weeks
[30] = Tmax in male Sprague-Dawley rat at 30 mg/kg/day, po measured at day 14; assay type: ADME, organism-based; conditions: in vivo, time 14 day
in vivo [31] = conditions: Sprague-Dawley, rat, po, 1 mg/kg
[32] = Toxicity in C57BL/6J mouse assessed as change in body weight at 100 mg/kg, po qd measured after 28 days in presence of 5 mg/kg anti-PD1; assay type: organism-based; conditions: in vivo, 672 h, time 28 day
[33] = Induction of IL-2 secretion in human PBMCs incubated for 24 hrs by ELISA; assay type: functional, cell-based, PBMC
hERG (KCNH2) = hERG (KCNH2) (Homo sapiens, UniProt Q12809); test: Inhibition of human ERG at 3 uM by patch clamp method relative to control; assay type: toxicity
hERG (KCNH2), sequence (Q12809 whole entry): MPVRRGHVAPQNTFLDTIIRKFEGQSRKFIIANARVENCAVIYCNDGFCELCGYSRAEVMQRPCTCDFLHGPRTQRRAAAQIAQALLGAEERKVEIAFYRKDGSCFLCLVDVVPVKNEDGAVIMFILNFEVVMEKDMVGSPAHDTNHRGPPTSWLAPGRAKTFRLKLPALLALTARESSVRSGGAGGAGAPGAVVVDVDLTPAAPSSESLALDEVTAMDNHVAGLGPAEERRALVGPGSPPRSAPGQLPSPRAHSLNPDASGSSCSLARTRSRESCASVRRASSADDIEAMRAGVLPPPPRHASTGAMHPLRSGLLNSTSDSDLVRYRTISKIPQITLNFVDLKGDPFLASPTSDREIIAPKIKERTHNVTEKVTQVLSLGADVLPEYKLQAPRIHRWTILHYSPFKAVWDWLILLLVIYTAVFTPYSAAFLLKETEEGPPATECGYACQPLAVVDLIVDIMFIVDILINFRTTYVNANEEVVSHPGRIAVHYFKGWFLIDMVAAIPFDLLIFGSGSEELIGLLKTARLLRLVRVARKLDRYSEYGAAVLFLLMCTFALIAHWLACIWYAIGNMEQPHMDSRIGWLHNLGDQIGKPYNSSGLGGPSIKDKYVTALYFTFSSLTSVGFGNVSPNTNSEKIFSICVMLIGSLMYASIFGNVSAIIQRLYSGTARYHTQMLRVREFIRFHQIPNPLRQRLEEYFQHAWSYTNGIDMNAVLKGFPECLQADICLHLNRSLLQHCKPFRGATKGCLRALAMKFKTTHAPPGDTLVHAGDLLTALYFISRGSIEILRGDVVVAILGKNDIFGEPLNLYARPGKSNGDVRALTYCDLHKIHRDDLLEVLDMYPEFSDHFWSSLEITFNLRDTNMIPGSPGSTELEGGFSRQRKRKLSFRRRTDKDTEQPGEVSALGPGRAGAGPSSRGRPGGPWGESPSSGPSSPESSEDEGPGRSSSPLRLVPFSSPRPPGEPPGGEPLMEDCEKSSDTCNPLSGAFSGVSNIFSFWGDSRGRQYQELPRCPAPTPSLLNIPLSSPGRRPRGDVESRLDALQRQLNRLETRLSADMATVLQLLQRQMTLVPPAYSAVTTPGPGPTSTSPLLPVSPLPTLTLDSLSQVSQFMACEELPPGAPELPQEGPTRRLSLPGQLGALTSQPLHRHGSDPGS

[34] = Clearance in Beagle dog at 1 mg/kg, iv measured upto 24 hrs by LC-MS analysis; conditions: in vivo

What does the source list for O=C1CCN(c2cc(C(=O)N3CCC(CC4CCN(c5ccc(-c6cnc7[nH]cc(-c8cnn(CC(F)(F)F)c8)c7n6)cn5)CC4)CC3)ccc2Cl)C(=O)N1?
Activity [1]: inactive; CLH [2]: 1.52 µL/min/mg; Drug uptake [3]: Active; IC50 (Cytochrome P450 3A4): > 10 µM; Cmax at 336 h (in vivo [4]): 3200 ng/mL; Cmax at 24 h (in vivo [5]): 111 ng/mL; Activity [6]: Dose-dependent-effect; Activity (MC-38 [7]): 21.84%; AUC(0-t) at 24 h [8]: 51300 ng·h/mL; fraction unbound at 6 h, 10 µM [9]: 0.0004; half-life at 1.5 h, 1 µM (in vitro): 208 min; Cmax at 24 h (in vivo [10]): 4900 ng/mL; Drug metabolism [11]: metabolite_detected; Activity (MC-38 [12]): Active; Comparable To 100 Mg/Kg Dd203-1 Treatement Group; Activity [13]: Non-toxic; Activity (MC-38 [14]): Dose-dependent-effect; Twice Daily Dose Was Slightly Better Than Once Daily; NOAEL at 336 h [15]: 100 mg/kg/day; Cmax at 336 h (in vivo [16]): 8590 ng/mL; inhibition in vivo at 0.5 mg/kg (MC-38 [17]): 91%; Activity [18]: Non-toxic; Cmax at 336 h (in vivo [19]): 11100 ng/mL; Tmax [20]: 2.67 h; Vd [21]: 0.834 L/kg; Activity [22]: Non-toxic; Activity (MC-38 [23]): 0.92 g; Tmax [24]: 3.17 h; Drug metabolism [25]: metabolite_detected; Activity [26]: inactive; Activity (MC-38 [27]): 667.6 mm3; Activity (MC-38 [28]): 1.56 g; IC50 (Cytochrome P450 2D6): > 10 µM; Activity (MC-38 [29]): 1.17 g; Tmax [30]: 8 h; Cmax at 24 h (in vivo [31]): 98.7 ng/mL; Activity [32]: Non-toxic; Emax [33]: 1151.57 pg/mL; inhibition at 3 µM (hERG (KCNH2)): 4.36%; clearance at 24 h [34]: 17 mL/min/kg
